Test results reported in ChEMBL document CHEMBL1201862, “PubChem BioAssay data set” (2004).
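In this assay, cells in 96-well plates receive the compound at five concentrations for 48 hours. Endpoints are linearly interpolated between the surrounding concentrations. GI50 marks 50% less growth.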 Calls of active or inactive are those of the source. No stated cut-off is given here; in the data, active = GI50 up to about 1.1 µM and inactive = higher.

Legend:
Experiment in all cases: NCI anticancer screen, dose series, 48 h
SNB-75 = tested on: SNB-75
SF-539 = tested on: SF-539
SK-OV-3 = tested on: SK-OV-3
K562 = tested on: K562
KM12 = tested on: KM12
ACHN = tested on: ACHN
SF-295 = tested on: SF-295
CAKI-1 = tested on: CAKI-1
HOP-62 = tested on: HOP-62
M19-MEL = tested on: M19-MEL
MDA-N = tested on: MDA-N
NCI-H522 = tested on: NCI-H522
MOLT-4 = tested on: MOLT-4
RPMI-8226 = tested on: RPMI-8226
M14 = tested on: M14
SN12C = tested on: SN12C
SK-MEL-28 = tested on: SK-MEL-28
HCT-116 = tested on: HCT-116
PC-3 = tested on: PC-3
HCC 2998 = tested on: HCC 2998

| SMILES | GI50 (SNB-75) | GI50 (SF-539) | GI50 (SK-OV-3) | GI50 (K562) | GI50 (KM12) | GI50 (ACHN) | GI50 (SF-295) | GI50 (CAKI-1) | GI50 (HOP-62) | GI50 (M19-MEL) | GI50 (MDA-N) | GI50 (NCI-H522) | GI50 (MOLT-4) | GI50 (RPMI-8226) | GI50 (M14) | GI50 (SN12C) | GI50 (SK-MEL-28) | GI50 (HCT-116) | GI50 (PC-3) | GI50 (HCC 2998) |
| --- | --- | --- | --- | --- | --- | --- | --- | --- | --- | --- | --- | --- | --- | --- | --- | --- | --- | --- | --- | --- |
| O=C(O)CN(CC(=O)O)Cc1cc(C#Cc2ccc(C#Cc3ccccc3)cc2)cc(CN(CC(=O)O)CC(=O)O)n1 | 31.6 µM (inactive) | 20.7 µM (inactive) | 56 µM (inactive) | 33 µM (inactive) | 16.8 µM (inactive) | 32 µM (inactive) | 27.4 µM (inactive) | 10.6 µM (inactive) | 18.4 µM (inactive) | 17.5 µM (inactive) | 35.6 µM (inactive) | 17.2 µM (inactive) | 8.91 µM (inactive) | 17.1 µM (inactive) | 22.9 µM (inactive) | 19.7 µM (inactive) | > 52 µM (inactive) | 8.87 µM (inactive) | 4.12 µM (inactive) | 4.63 µM (inactive) |
| CN(C)C(=S)/N=c1\ssc(=S)n1Cc1cccs1 | 1.52 µM (inactive) | 2.55 µM (inactive) | 3.46 µM (inactive) | 2.1 µM (inactive) | 3.39 µM (inactive) | 9.35 µM (inactive) | 1.93 µM (inactive) | 3.11 µM (inactive) | 3.64 µM (inactive) | 3.16 µM (inactive) | 0.604 µM (active) | 0.39 µM (active) | 17.5 µM (inactive) | 5.81 µM (inactive) | 3.01 µM (inactive) | 6.9 µM (inactive) | 8.41 µM (inactive) | 3.15 µM (inactive) | 2.4 µM (inactive) | 6.7 µM (inactive) |
| COc1cc(/C=C\c2ccc(SC)cc2)cc(OC)c1OC | < 0.01 µM (active) | < 0.0145 µM (active) | 0.0141 µM (active) | < 0.01 µM (active) | 0.0241 µM (active) | 0.467 µM (active) | 0.0119 µM (active) | 0.244 µM (active) | 0.0175 µM (active) | 0.0278 µM (active) | < 0.01 µM (active) | 0.0133 µM (active) | 0.0281 µM (active) | 0.0331 µM (active) | 0.0182 µM (active) | 0.0667 µM (active) |  | < 0.0158 µM (active) | < 0.01 µM (active) | < 0.01 µM (active) |
| Cc1c(Cl)ccc2c1NC(=O)C2(O)CC(=O)c1ccc(Cl)cc1 (stereo not drawn) | 76.2 µM (inactive) | 65.2 µM (inactive) | > 100 µM (inactive) | 22.8 µM (inactive) | 51.2 µM (inactive) | > 100 µM (inactive) | 24.8 µM (inactive) | > 71.9 µM (inactive) | 97.3 µM (inactive) | 6.62 µM (inactive) |  | > 61.5 µM (inactive) | 17.7 µM (inactive) | 30.8 µM (inactive) | > 100 µM (inactive) | 26.8 µM (inactive) | > 94.4 µM (inactive) | 27.5 µM (inactive) |  | > 42 µM (inactive) |
| Cc1cccc(C)c1NC(=O)C(=O)CC(=O)CO | 73.5 µM (inactive) | > 100 µM (inactive) | > 100 µM (inactive) | > 100 µM (inactive) | > 100 µM (inactive) | > 100 µM (inactive) | > 100 µM (inactive) | > 100 µM (inactive) | > 100 µM (inactive) | > 100 µM (inactive) |  | > 100 µM (inactive) | > 100 µM (inactive) | > 100 µM (inactive) | > 100 µM (inactive) | > 100 µM (inactive) | > 100 µM (inactive) | > 100 µM (inactive) |  | > 100 µM (inactive) |
| Nc1ccc(N)c2c1C(=O)c1c(N)ccc(N)c1C2=O | 28.4 µM (inactive) | 31.8 µM (inactive) | > 74.5 µM (inactive) | > 92.9 µM (inactive) | 60.8 µM (inactive) | 27.5 µM (inactive) | 70 µM (inactive) | 49.9 µM (inactive) | 78.2 µM (inactive) | > 71.1 µM (inactive) |  | 27.5 µM (inactive) | 25.9 µM (inactive) | > 57.3 µM (inactive) | > 77.3 µM (inactive) | > 63.5 µM (inactive) | 98.6 µM (inactive) | > 73.3 µM (inactive) |  | 39.6 µM (inactive) |
